Data on 58 molecules can be found in PMC7539012, “Hyperphosphorylated tau aggregation and cytotoxicity modulators screen identified prescription drugs linked to Alzheimer's disease and cognitive functions” (Scientific Reports, 2020).

Structures can show the parent of a compound that is named as a salt.

The first test deals with T1, 1N4R p-tau.
T1 construct: made in house; host or cells: E. coli (PIMAX system)
In words: p-tau aggregation modulator screen of 1280-compound library (ThS fluorescence net change over 16 h).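 For ThS net change: 30 µM compound with 6 µM p-tau over 16 h.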 Type of test: biochemical. Details: key to PTAI>2SD: *: PTAI>2SD; key to PTAI>3SD: *: PTAI>3SD.
Conditions: not given
Turning to `CC(=O)O[C@H]1CC[C@@]2(C)C(=CC[C@@H]3[C@@H]2CC[C@]2(C)C(=O)CC[C@@H]32)C1` [Dehydroisoandosterone 3-acetate], the ThS net change amounted to 423.
`CC[N+](CC)(CC(=O)Nc1c(C)cccc1C)Cc1ccccc1` [Denatonium benzoate] yielded a ThS net change of 448.
`Clc1ccc2c(c1)CCc1cccnc1C2=C1CCNCC1` [Desloratadine]: the ThS net change worked out at 457.
`Cc1onc(-c2c(Cl)cccc2Cl)c1C(=O)N[C@@H]1C(=O)N2[C@@H]1SC(C)(C)[C@@H]2C(=O)[O-].O.[Na+]` [Dicloxacillin sodium salt hydrate] had a ThS net change of 415.
Same read-out and setting: the value for `COc1ccc([C@@H]2Sc3ccccc3N(CCN(C)C)C(=O)[C@@H]2OC(C)=O)cc1` [Diltiazem hydrochloride] was 308.

Staying with this test, now noted: 1280-compound library screen; ThS fluorescence net change over 16 h.
Turning to `NS(=O)(=O)c1cc(Cl)c(Cl)c(S(N)(=O)=O)c1` [Dichlorphenamide], the ThS net change stood at 404.
Same read-out and setting: the value for `C/C=C(/C(=C/C)c1ccc(O)cc1)c1ccc(O)cc1` [Dienestrol] was 410; that for `CCN(CC)C(=O)N1CCN(C)CC1` [Diethylcarbamazine citrate] was 391; that for `CC(=O)OCC(=O)[C@@]1(OC(C)=O)[C@@H](C)C[C@H]2[C@@H]3C[C@H](F)C4=CC(=O)C=C[C@]4(C)[C@@]3(F)[C@@H](O)C[C@@]21C` [Diflorasone Diacetate] was 407.
Consider `CC1(C)OC(=O)NC1=O` [Dimethadione], for which the ThS net change turned out to be 381.
Consider `CCCCc1cc2ccccc2c(OCCN(C)C)n1` [Dimethisoquin hydrochloride], for which the ThS net change worked out at 394.
Molecule `CCCCC[C@H](O)/C=C/[C@@H]1[C@@H](C/C=C\CCCC(=O)O)[C@@H](O)C[C@H]1O` [Dinoprost trometamol] returned a ThS net change of 384.
On the same count and under the same terms, the result for `CN1CCC(OC(c2ccccc2)c2ccccc2)CC1` [Diphenylpyraline hydrochloride] reads 380.
On the same count and under the same terms, the value for `Cn1c(=O)c2c(ncn2CC(O)CO)n(C)c1=O` (stereo not drawn) [Diprophylline] was 381.
The same measure, in the same setting: the result for `CN(CCOc1ccc(NS(C)(=O)=O)cc1)CCc1ccc(NS(C)(=O)=O)cc1` [Dofetilide] reads 388.

The same test, now with this note: 1280-compound library screen; […].
Turning to `CCN[C@@H](C)Cc1cccc(C(F)(F)F)c1` [Dexfenfluramine hydrochloride], the ThS net change turned out to be 397.
On the same count and under the same terms, the result for `CC(=O)Nc1c(I)c(NC(C)=O)c(I)c(C(=O)O)c1I.O.O` [Diatrizoic acid dihydrate] reads 407; that for `C[C@]12CC[C@H](O)C[C@H]1CC[C@@H]1[C@@H]2CC[C@]2(C)[C@@H](C3=CC(=O)OC3)CC[C@]12O` [Digitoxigenin], 383.
Still for that read-out and setting: the result for `C[C@H]1O[C@@H](O[C@H]2[C@@H](O)C[C@H](O[C@H]3[C@@H](O)C[C@H](O[C@H]4CC[C@@]5(C)[C@H](CC[C@@H]6[C@@H]5C[C@@H](O)[C@]5(C)[C@@H](C7=CC(=O)OC7)CC[C@]65O)C4)O[C@@H]3C)O[C@@H]2C)C[C@H](O)[C@@H]1O` [Digoxin] reads 404.

Still in this test, the particulars now being: flag: p-tau aggregation inhibitor, ThS net change more than 2 SD from mean.
As to `CN(C)[C@@H]1C(O)=C(C(N)=O)C(=O)[C@@]2(O)C(O)=C3C(=O)c4c(O)ccc(Cl)c4[C@@H](O)[C@H]3C[C@@H]12` [Demeclocycline hydrochloride], the “PTAI>2SD” value was “*”.

The test is the same for the next values; noted with them: flag: p-tau aggregation inhibitor, ThS net change more than 3 SD from mean.
As to `OCCN(CCO)c1nc(N2CCCCC2)c2nc(N(CCO)CCO)nc(N3CCCCC3)c2n1` [Dipyridamole], the “PTAI>3SD” value is given as “*”.

The same test, now with this note: library screen, ThS fluorescence net change over 16 h with p-tau.
In turn, `CN(C)[C@@H]1C(O)=C(C(N)=O)C(=O)[C@@]2(O)C(O)=C3C(=O)c4c(O)ccc(Cl)c4[C@@H](O)[C@H]3C[C@@H]12` [Demeclocycline hydrochloride] came in with a ThS net change of 117.
In turn, `Cc1cc(N)c2ccccc2[n+]1CCCCCCCCCC[n+]1c(C)cc(N)c2ccccc21` [Dequalinium dichloride] registered a ThS net change of 297.
The same measure, in the same setting: the value for `CC(=O)Oc1cccc2c1C(=O)c1c(OC(C)=O)cc(C(=O)O)cc1C2=O` [Diacerein] was 239; that for `CCCCOc1cc(C(=O)NCCN(CC)CC)c2ccccc2n1` [Dibucaine] was 296; that for `CCN(CC)CCOC(=O)C1(C2CCCCC2)CCCCC1` [Dicyclomine hydrochloride] was 282.
`O=c1[nH]cnc2c1ncn2[C@H]1CC[C@@H](CO)O1` [Didanosine] displayed a ThS net change of 321.
On the same count and under the same terms, the value for `O=C(O)c1cc(-c2ccc(F)cc2F)ccc1O` [Diflunisal] was 304.
On the same count and under the same terms, the result for `COc1cc(C(=O)OCCCN2CCCN(CCCOC(=O)c3cc(OC)c(OC)c(OC)c3)CC2)cc(OC)c1OC.Cl.Cl` [Dilazep dihydrochloride] reads 286.
For the molecule `COc1ccc(-c2cc(=O)c3c(O)cc(O[C@@H]4O[C@H](CO[C@@H]5O[C@@H](C)[C@H](O)[C@@H](O)[C@H]5O)[C@@H](O)[C@H](O)[C@H]4O)cc3o2)cc1O` [Diosmin], the ThS net change was found to be 211.
Still for that read-out and setting: the result for `COc1ccc(C(=O)c2ccccc2O)c(O)c1` [Dioxybenzone] reads 296; that for `OCCN(CCO)c1nc(N2CCCCC2)c2nc(N(CCO)CCO)nc(N3CCCCC3)c2n1` [Dipyridamole], -5843.
Same read-out and setting: the result for `CC(CCc1ccc(O)cc1)NCCc1ccc(O)c(O)c1` (stereo not drawn) [Dobutamine hydrochloride] reads 257.

The same test, now with this note: p-tau aggregation modulator screen of 1280-compound library; ThS fluorescence net change.
For `CNCCCN1c2ccccc2CCc2ccccc21` [Desipramine hydrochloride], the ThS net change came out at 365.
On the same count and under the same terms, the result for `CC(=O)OCC(=O)[C@@]1(O)[C@H](C)C[C@H]2[C@@H]3CCC4=CC(=O)C=C[C@]4(C)[C@@]3(F)[C@@H](O)C[C@@]21C` [Dexamethasone acetate] reads 343; that for `CC1=NS(=O)(=O)c2cc(Cl)ccc2N1` [Diazoxide], 354; that for `CN(C)CCN1C(=O)c2ccccc2N(C)c2ccccc21.Cl` [Dibenzepine hydrochloride], 368.
Same read-out and setting: the result for `O=C(O)Cc1ccccc1Nc1c(Cl)cccc1Cl` [Diclofenac sodium] reads 376.
Take `O=c1oc2ccccc2c(O)c1Cc1c(O)c2ccccc2oc1=O` [Dicumarol]: the ThS net change was 363.
The same measure, in the same setting: the result for `CN[C@@H]1[C@H](O[C@H]2[C@H](O[C@H]3[C@H](O)[C@@H](O)[C@H](NC(=N)N)[C@@H](O)[C@@H]3NC(=N)N)O[C@@H](C)[C@]2(O)CO)O[C@@H](CO)[C@H](O)[C@H]1O` [Dihydrostreptomycin sulfate] reads 331; that for `CN(C(=O)C(Cl)Cl)c1ccc(OC(=O)c2ccco2)cc1` [Diloxanide furoate], 371; that for `CN(C)CCOC(c1ccccc1)c1ccccc1.Cn1c(=O)c2[nH]c(Cl)nc2n(C)c1=O` [Dimenhydrinate], 345.
Turning to `O=C(Nc1ccccc1)OCC(CN1CCCCC1)OC(=O)Nc1ccccc1` (stereo not drawn) [Diperodon hydrochloride], the ThS net change is listed as 347.
`C[N+]1(C)CCC(=C(c2ccccc2)c2ccccc2)CC1` [Diphemanil methylsulfate] returned a ThS net change of 350.
Same read-out and setting: the value for `CN(C)CCOC(c1ccccc1)c1ccccc1` [Diphenhydramine hydrochloride] was 335; that for `OC(CCCN1CCCCC1)(c1ccccc1)c1ccccc1` [Diphenidol hydrochloride] was 345.
For the molecule `CNCC(O)c1ccc(OC(=O)C(C)(C)C)c(OC(=O)C(C)(C)C)c1` (stereo not drawn) [Dipivefrin hydrochloride], the ThS net change was determined as 357.
The same measure, in the same setting: the value for `Cc1c(N(C)CS(=O)(=O)[O-])c(=O)n(-c2ccccc2)n1C.[Na+]` [Dipyrone] was 363; that for `CC(C)N(CCC(C(N)=O)(c1ccccc1)c1ccccn1)C(C)C` (stereo not drawn) [Disopyramide] was 377; that for `CCN(CC)C(=S)SSC(=S)N(CC)CC` [Disulfiram] was 339.

The same test, now with this note: p-tau aggregation modulator screen of 1280-compound library; […].
`CN(CCCCCCCCCCN(C)C(=O)Oc1cccc([N+](C)(C)C)c1)C(=O)Oc1cccc([N+](C)(C)C)c1` [Demecarium bromide]: the ThS net change was 377.
On the same count and under the same terms, the value for `CN1C[C@H](C(=O)N[C@]2(C)O[C@@]3(O)[C@@H]4CCCN4C(=O)[C@H](Cc4ccccc4)N3C2=O)CC2c3cccc4[nH]cc(c34)C[C@H]21.CN1C[C@H](C(=O)N[C@]2(C)O[C@@]3(O)[C@@H]4CCCN4C(=O)[C@H](Cc4ccccc4)N3C2=O)C[C@@H]2c3cccc4[nH]cc(c34)C[C@H]21.O=C(O)C(O)C(O)C(=O)O` (stereo partly drawn) [Dihydroergotamine tartrate] was 342.
Same read-out and setting: the value for `C[C@]12N[C@H](Cc3ccccc31)c1ccccc12` [Dizocilpine maleate] was 349.

The test is the same for the next values; noted with them: p-tau aggregation modulator screen of the compound library, ThS fluorescence net change.
Consider `CN1[C@@H]2CC[C@H]1CC(OC1c3ccccc3CCc3ccccc31)C2.O=C(O)CC(O)(CC(=O)O)C(=O)O` (stereo partly drawn) [Deptropine citrate], for which the ThS net change was found to be 455.
On the same count and under the same terms, the value for `CC1(C)O[C@@H]2C[C@H]3[C@@H]4CCC5=CC(=O)C=C[C@]5(C)[C@H]4[C@@H](O)C[C@]3(C)[C@]2(C(=O)CO)O1` [Desonide] was 440; that for `N#CC(c1ccc(Cl)cc1)c1c(Cl)cc(-n2ncc(=O)[nH]c2=O)cc1Cl` (stereo not drawn) [Diclazuril] was 507; that for `C[C@]12CC[C@H](O)C[C@H]1CC[C@@H]1[C@@H]2C[C@@H](O)[C@]2(C)[C@@H](C3=CC(=O)OC3)CC[C@]12O` [Digoxigenin] was 440.
With `CN(C)CCCSC(=N)N.Cl.Cl` [Dimaprit dihydrochloride], the ThS net change is given as 436.
On the same count and under the same terms, the result for `CC[C@H]1OC(=O)[C@H](C)[C@@H](O[C@H]2C[C@@](C)(OC)[C@@H](O)[C@H](C)O2)[C@H](C)[C@@H](O[C@@H]2O[C@H](C)C[C@H](N(C)C)[C@H]2O)[C@](C)(O)C[C@@H](C)[C@@H]2N[C@@H](COCCOC)O[C@H]([C@H]2C)[C@]1(C)O` [Dirithromycin] reads 418; that for `CC(=O)O[C@@]12CO[C@@H]1C[C@H](O)[C@@]1(C)C(=O)[C@H](O)C3=C(C)[C@@H](OC(=O)[C@H](O)[C@@H](NC(=O)OC(C)(C)C)c4ccccc4)C[C@@](O)([C@@H](OC(=O)c4ccccc4)[C@H]21)C3(C)C` [Docetaxel], 542.
